According to US20090197856A1, “ANTIVIRAL COMPOUNDS” (Genelabs Technologies, Inc., priority 2007, published 2009):
pIC50: −log10 of the molar value. Read-outs that look alike come from different tables or passages of the source.

Target: T1, HCV-NS5b (Hepatitis C virus genotype 1b, UniProt Q9WMX2)
T1 construct: (His)6 (C); made in house; host or cells: XL-1 cells (E. coli), IPTG-inducible plasmid
Experiment: HCV-NS5b enzyme assay using homopolymer substrate
Format: biochemical
From the text: The coding sequence of NS5b protein was cloned by PCR from pFKI389luc/NS3-3′/ET as described by Lohmann, V., et al. (1999) Science 285, 110-113 using the primers shown on page 266 of WO 2005/012288
The cloned fragment is missing the C terminus 21 amino acid residues. The cloned fragment was inserted into an IPTG-inducible (isopropyl-β-D-thiogalactopyranoside) expression plasmid that provides an epitope tag (His)6 at the carboxy terminus of the protein.
The recombinant enzyme was expressed in XL-1 cells and after induction of expression, the protein was purified using affinity chromatography on a nickel-NTA (nitrilotriacetic acid) column. Storage condition was 10 mM Tris-HCl pH 7.5, 50 mM NaCl, 0.1 mM EDTA (ethylenediaminetetraacetic acid), 1 mM DTT (dithiothreotol), 20% glycerol at −20° C.
The polymerase activity was assayed by measuring incorporation of radiolabeled UTP into a RNA product using a biotinylated, homopolymeric template. The template was formed by annealing adenosine homopolymer to uridine 20-mer capped with a 5′-biotin group (biotin-U^20) in the ratio of 1:4. Typically, the assay mixture (50 μL) contained 25 mM Tris-HCl (pH 7.5), 40 mM KCl, 0.3 mM MgCl2, 0.05 mM EDTA, 0.2 unit/μL Superase RNAse Inhibitor, 5 mM DTT, 30 μM UTP (Uridine triphosphate), including [^3H]-UTP (uridine triphosphate) at 0.4 μCi/μL with final concentration of 1 μM, and 50 nM of homopolymeric template. Test compounds were initially dissolved in 100% DMSO and further diluted in aqueous buffer containing 5% DMSO. Typically, compounds were tested at concentrations between 2 nM and 50 μM. Reactions were started with addition of enzyme and allowed to continue at 30° C. for 90 minutes. Reactions were quenched with 8 μL of 100 mM EDTA and reaction mixtures (30 μL) were transferred to streptavidin-coated scintillation proximity microtiter plates (FlashPlates) and incubated at room temperature overnight. Incorporation of radioactivity was determined by scintillation counting.
Inhibitor IC50 values were determined by adding test compound as ten point, two-fold serial dilutions in 100% DMSO with a final reaction concentration of 5%. IC50 was calculated by plotting the % inhibition against compound concentration and fitting the data to a constrained four parameter sigmoidal curve, equivalent to the “four parameter logistic equation”:
Where Bottom is the minimum Y value, Top is the maximum Y value, and Hillslope is the slope of the linear portion of the semi-log curve. Top and Bottom were constrained to values of 0% and 100%, respectively. These analyses were performed using Graphpad Prism v.4.0 (Graphpad Software, Inc.) in conjunction with DS Accord for EXCEL 6.0 (Accelrys, Microsoft Corp.).
The table below lists the IC50 values of compounds determined using the homopolymer substrates.

[1] = homopolymer substrate, [3H]-UTP incorporation, 30° C., 90 minutes, read-out: IC50

Row | SMILES | pIC50 [1] | pIC50
1 | CC(C)NC1CCN2CCn3c(c(C4CCCCC4)c4ccc(C(=O)O)cc43)-c3cccc1c32 (stereo not drawn) [Compound 276] | 7.19 | –
2 | CCCNC1CCN2CCn3c(c(C4CCCCC4)c4ccc(C(=O)O)cc43)-c3cccc1c32 (stereo not drawn) [Compound 277] | 7.25 | –
3 | O=C(O)c1ccc2c(C3CCCCC3)c3n(c2c1)CCN1CCC(NC2CCOCC2)c2cccc-3c21 (stereo not drawn) [Compound 282] | 7.23 | –
4 | CN(C)C1CCN2CCn3c(c(C4CCCCC4)c4ccc(C(=O)O)cc43)-c3cccc1c32 (stereo not drawn) [Compound 285, 15-Cyclohexyl-4-(dimethylamino)-5,6,8,9-tetrahydro-4H-indolo[1′,2′:4,5][1,4]diazepino[6,7,1-ij]quinoline-12-carboxylic acid] | 7.10 | –
5 | CC1CN(Cc2cn3c4c(cccc24)-c2c(C4CCCCC4)c4ccc(C(=O)O)cc4n2CCC3)CC(C)O1 (stereo not drawn) [Compound 330] | 6.95 | –
6 | CCN(C)Cc1cn2c3c(cccc13)-c1c(C3CCCCC3)c3ccc(C(=O)O)cc3n1CCC2 [Compound 337] | 5.89 | –
7 | C=C1Cn2cc(CN3CCCCC3)c3cccc(c32)-c2c(C3CCCCC3)c3ccc(C(=O)O)cc3n2C1 [Compound 341] | 6.87 | –
8 | O=C(O)c1ccc2c(C3CCCCC3)c3n(c2c1)CCCn1ccc2c(F)ccc-3c21 [Compound 344] | 6.88 | –
9 | O=C(O)c1ccc2c(C3CCCCC3)c3n(c2c1)CCCn1cc(CN2CCCCC2)c2c(F)ccc-3c21 [Compound 345] | 6.90 | –
10 | CCN(CC)Cc1cn2c3c(ccc(F)c13)-c1c(C3CCCCC3)c3ccc(C(=O)O)cc3n1CCC2 [Compound 346] | 6.92 | –
11 | CCN(C)Cc1cn2c3c(ccc(F)c13)-c1c(C3CCCCC3)c3ccc(C(=O)O)cc3n1CCC2 [Compound 347] | 6.91 | –
12 | CN1CCN(Cc2cn3c4c(ccc(F)c24)-c2c(C4CCCCC4)c4ccc(C(=O)O)cc4n2CCC3)CC1 [Compound 348] | 6.84 | –
13 | O=C(O)c1ccc2c(C3CCCCC3)c3n(c2c1)CCn1cc(CCN2CCCCC2)c2cccc-3c21 [Compound 349] | 7.01 | –
14 | CCN(CC)Cc1cn2c3c(cccc13)-c1c(C3CCCCC3)c3ccc(C(=O)O)cc3n1CC2 [Compound 350] | 7.19 | –
15 | CCN(C)Cc1cn2c3c(cccc13)-c1c(C3CCCCC3)c3ccc(C(=O)O)cc3n1CC2 [Compound 351] | 7.25 | –
16 | O=C(O)c1ccc2c(C3CCCCC3)c3n(c2c1)CCCn1cc(CN2CCC(F)CC2)c2cccc-3c21 [Compound 352] | 7.05 | –
17 | O=C(O)c1ccc2c(C3CCCCC3)c3n(c2c1)CCCn1cc(CN2CCCC(F)C2)c2cccc-3c21 (stereo not drawn) [Compound 353] | 6.96 | –
18 | O=C(O)c1ccc2c(C3CCCCC3)c3n(c2c1)CCCn1cc(CN2CC[C@H](F)C2)c2cccc-3c21 [Compound 354] | 6.96 | –
19 | CCN1CCN(Cc2cn3c4c(cccc24)-c2c(C4CCCCC4)c4ccc(C(=O)O)cc4n2CCC3)CC1 [Compound 356] | 6.92 | –

Row | SMILES | pIC50 [1] | pIC50
20 | CSCCNCc1cn2c3c(cccc13)-c1c(C3CCCCC3)c3ccc(C(=O)O)cc3n1CCC2 [Compound 358] | 6.82 | –
21 | O=C(O)c1ccc2c(C3CCCCC3)c3n(c2c1)CCCn1cc(CN2CCCC(O)C2)c2cccc-3c21 (stereo not drawn) [Compound 359] | 6.81 | –
22 | O=C(O)c1ccc2c(C3CCCCC3)c3n(c2c1)CCCn1cc(CNC2CCOCC2)c2cccc-3c21 [Compound 360] | 6.83 | –
23 | CCN(Cc1cn2c3c(cccc13)-c1c(C3CCCCC3)c3ccc(C(=O)O)cc3n1CCC2)C(C)C [Compound 361] | 6.75 | –
24 | COCCN(CCOC)Cc1cn2c3c(cccc13)-c1c(C3CCCCC3)c3ccc(C(=O)O)cc3n1CCC2 [Compound 362] | 6.47 | –
25 | O=C(O)c1ccc2c(C3CCCCC3)c3n(c2c1)CCCn1cc(CN(CCO)CCO)c2cccc-3c21 [Compound 363] | 6.91 | –
26 | CC1CCC(NCc2cn3c4c(cccc24)-c2c(C4CCCCC4)c4ccc(C(=O)O)cc4n2CCC3)CC1 (stereo not drawn) [Compound 364] | 6.56 | –
27 | CC(=O)N1CCN(Cc2cn3c4c(cccc24)-c2c(C4CCCCC4)c4ccc(C(=O)O)cc4n2CCC3)CC1 [Compound 365] | 7.06 | –
28 | CCCNCc1cn2c3c(cccc13)-c1c(C3CCCCC3)c3ccc(C(=O)O)cc3n1CCC2 [Compound 366] | 6.92 | –
29 | CC(C)CNCc1cn2c3c(cccc13)-c1c(C3CCCCC3)c3ccc(C(=O)O)cc3n1CCC2 [Compound 367] | 6.80 | –
30 | CN(C)CCNCc1cn2c3c(cccc13)-c1c(C3CCCCC3)c3ccc(C(=O)O)cc3n1CCC2 [Compound 368] | 6.52 | –
31 | CN(C)C(=O)CNCc1cn2c3c(cccc13)-c1c(C3CCCCC3)c3ccc(C(=O)O)cc3n1CCC2 [Compound 369] | 6.77 | –
32 | O=C(O)c1ccc2c(C3CCCCC3)c3n(c2c1)CCCn1cc(CNC2CCCOC2)c2cccc-3c21 (stereo not drawn) [Compound 370] | 7.03 | –
33 | O=C(O)c1ccc2c(C3CCCCC3)c3n(c2c1)CCCn1cc(CNC2CCCC2)c2cccc-3c21 [Compound 371] | 6.96 | –
34 | CNCc1cn2c3c(cccc13)-c1c(C3CCCCC3)c3ccc(C(=O)O)cc3n1CCC2 [Compound 372] | 6.97 | –
35 | CS(=O)(=O)NC(=O)c1ccc2c(C3CCCCC3)c3n(c2c1)CCCn1cc(CN2CCCCC2)c2cccc-3c21 [Compound 373] | 6.82 | –
36 | O=C(NC1CC1)c1ccc2c(C3CCCCC3)c3n(c2c1)CCCn1cc(CN2CCCCC2)c2cccc-3c21 [Compound 374] | 6.44 | –
37 | CN(C)S(=O)(=O)NC(=O)c1ccc2c(C3CCCCC3)c3n(c2c1)CCCn1cc(CN2CCCCC2)c2cccc-3c21 [Compound 375] | 6.75 | –
38 | CCN(C)Cc1cn2c3c(cccc13)-c1c(C3CCCCC3)c3ccc(C(=O)OC)cc3n1CCC2 [Compound 376] | 6.19 | –

Row | SMILES | pIC50 [1] | pIC50
39 | O=C(O)c1ccc2c(C3CCCCC3)c3n(c2c1)CCCn1cc(CNC2CCCCC2)c2cccc-3c21 [Compound 378] | 6.70 | –
40 | CCC(C)NCc1cn2c3c(cccc13)-c1c(C3CCCCC3)c3ccc(C(=O)O)cc3n1CCC2 (stereo not drawn) [Compound 379] | 6.93 | –
41 | O=C(O)CNCc1cn2c3c(cccc13)-c1c(C3CCCCC3)c3ccc(C(=O)O)cc3n1CCC2 [Compound 380] | 7.03 | –
42 | COCCNCc1cn2c3c(cccc13)-c1c(C3CCCCC3)c3ccc(C(=O)O)cc3n1CCC2 [Compound 381] | 6.93 | –
43 | CC1CCC(C)N1Cc1cn2c3c(cccc13)-c1c(C3CCCCC3)c3ccc(C(=O)O)cc3n1CCC2 (stereo not drawn) [Compound 382] | 6.85 | –
44 | O=C(O)c1ccc2c(C3CCCCC3)c3n(c2c1)CCCn1cc(CNC2CCC2)c2cccc-3c21 [Compound 383] | 7.07 | –
45 | O=C(O)c1ccc2c(C3CCCCC3)c3n(c2c1)CCCn1cc(CN[C@H]2CC[C@H](O)CC2)c2cccc-3c21 [Compound 384] | 7.19 | –
46 | O=C(O)c1ccc2c(C3CCCCC3)c3n(c2c1)CCCn1cc(CN2CCC(O)CC2)c2cccc-3c21 [Compound 385] | 6.88 | –
47 | O=C(O)c1ccc2c(C3CCCCC3)c3n(c2c1)CCCn1cc(CNCc2cccnc2)c2cccc-3c21 [Compound 386] | 6.71 | –
48 | CON(C)Cc1cn2c3c(cccc13)-c1c(C3CCCCC3)c3ccc(C(=O)O)cc3n1CCC2 [Compound 387] | 6.74 | –
49 | O=C(O)c1ccc2c(C3CCCCC3)c3n(c2c1)CCCn1cc(CNCCO)c2cccc-3c21 [Compound 388] | 6.80 | –
50 | O=C(O)c1ccc2c(C3CCCCC3)c3n(c2c1)CCCn1cc(CN2CCC(O)C2)c2cccc-3c21 (stereo not drawn) [Compound 390] | 6.63 | –
51 | CS(=O)(=O)CCNCc1cn2c3c(cccc13)-c1c(C3CCCCC3)c3ccc(C(=O)O)cc3n1CCC2 [Compound 391] | 6.68 | –
52 | C[C@@H]1CC[C@@H](C)N1Cc1cn2c3c(cccc13)-c1c(C3CCCCC3)c3ccc(C(=O)O)cc3n1CCC2 [Compound 392] | 6.98 | –
53 | CCC(C)(C)NCc1cn2c3c(cccc13)-c1c(C3CCCCC3)c3ccc(C(=O)O)cc3n1CCC2 [Compound 393] | 6.86 | –
54 | O=C(O)c1ccc2c(C3CCCCC3)c3n(c2c1)CCCn1cc(CN2CCS(=O)(=O)CC2)c2cccc-3c21 [Compound 394] | 6.80 | –
55 | NCc1cn2c3c(cccc13)-c1c(C3CCCCC3)c3ccc(C(=O)O)cc3n1CCC2 [Compound 395] | 6.85 | –
56 | CC1Cn2cc(CN3CCCCC3)c3cccc(c32)-c2c(C3CCCCC3)c3ccc(C(=O)O)cc3n2C1 (stereo not drawn) [Compound 396] | 6.90 | –
57 | O=C(O)c1ccc2c(C3CCCCC3)c3n(c2c1)CCCn1cc(C2=CCNCC2)c2cccc-3c21 [Compound 397] | – | 6.66
